Consider one cell line from the supplement of paper PMC10307832.

Common to all, as to test: relative viability (nuclei count vs DMSO), 5 days (fraction); higher = more cells survive
Compound in the test “MLN4924 + Alpelisib”: NS(=O)(=O)OC[C@@H]1C[C@@H](n2ccc3c(N[C@H]4CCc5ccccc54)ncnc32)C[C@@H]1O [MLN4924] + Cc1nc(NC(=O)N2CCC[C@H]2C(N)=O)sc1-c1ccnc(C(C)(C)C(F)(F)F)c1 [Alpelisib] (partner 2 µM)
The method in brief: (§1)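 Medians of duplicate plates are given as relative viability. That measure is the nuclei count in treated wells divided by the count in vehicle wells. Counts were taken on 4× images of lung cancer cell lines in 1536-well plates, 5 days after pin-tool dosing the day after seeding with one drug alone or a fixed anchor-drug dose plus five library-drug doses (not always all listed) in √10 steps.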

Compound in the test “GSK126 + Lapatinib”: CC[C@H](C)N1C=C(C2=C(C=C(C=C21)C3=CN=C(C=C3)N4CCNCC4)C(=O)NCC5=C(C=C(NC5=O)C)C)C [GSK126] + CS(=O)(=O)CCNCc1ccc(-c2ccc3ncnc(Nc4ccc(OCc5cccc(F)c5)c(Cl)c4)c3c2)o1 [Lapatinib] (partner 2 µM)
The method in brief: as §1

Compound in the test “Carboplatin + Luminespib”: C1CC(C1)(C(=O)O)C(=O)O.[NH2-].[NH2-].[Pt+2] [Carboplatin] + CCNC(=O)c1noc(-c2cc(C(C)C)c(O)cc2O)c1-c1ccc(CN2CCOCC2)cc1 [Luminespib] (partner 0.01 µM)
Put shortly:
as §1

Compound in the test “MLN4924 + Foretinib”: NS(=O)(=O)OC[C@@H]1C[C@@H](n2ccc3c(N[C@H]4CCc5ccccc54)ncnc32)C[C@@H]1O [MLN4924] + COc1cc2c(Oc3ccc(NC(=O)C4(C(=O)Nc5ccc(F)cc5)CC4)cc3F)ccnc2cc1OCCCN1CCOCC1 [Foretinib] (partner 0.25 µM)
The method in brief: as §1

Consider UMC-11, for which the relative viability with MLN4924 + Alpelisib (first compound 0.04 µM) was 0.59; with MLN4924 + Alpelisib (first compound 0.1265 µM), 0.249; with MLN4924 + Alpelisib (first compound 0.4 µM), 0.254; in the test with MLN4924 + Alpelisib (first compound 1.265 µM), 0.128; with MLN4924 + Alpelisib (first compound 4 µM), 0.13; with GSK126 + Lapatinib (first compound 0.08 µM), 1.05. Moreover, the relative viability was 0.998 with GSK126 + Lapatinib (first compound 0.253 µM); 1.13 with GSK126 + Lapatinib (first compound 0.8 µM); 0.796 with GSK126 + Lapatinib (first compound 2.53 µM); 0.959 in the test with GSK126 + Lapatinib (first compound 8 µM); 0.961 with Carboplatin + Luminespib (first compound 0.08 µM); 1.01 in the test with Carboplatin + Luminespib (first compound 0.253 µM). Further, the relative viability was determined as 1 in the test with Carboplatin + Luminespib (first compound 0.8 µM); 0.955 with Carboplatin + Luminespib (first compound 2.53 µM); 0.651 with Carboplatin + Luminespib (first compound 8 µM); 0.57 with MLN4924 + Foretinib (first compound 0.04 µM); 0.307 with MLN4924 + Foretinib (first compound 0.1265 µM); 0.298 with MLN4924 + Foretinib (first compound 0.4 µM). Besides, the relative viability is 0.191 with MLN4924 + Foretinib (first compound 1.265 µM) and 0.173 with MLN4924 + Foretinib (first compound 4 µM).
